According to PMC12494546, “Structural basis of heme scavenging by the ChtA and HtaA hemophores in Corynebacterium diphtheriae” (The Journal of Biological Chemistry, 2025):
Values joined by “and” are separate entries in the source; they are usually repeats but may differ in a detail not shown here. Equal values may be shown once.

Tests used:
[1] = target: ChtA^CR Y178H; test: ITC of hemin binding to ChtA^CR Y178H; design: species or system Corynebacterium diphtheriae; conditions: 25 °C, average of three replicates
Source text: (§1) Protein samples were equilibrated in titration buffer supplemented with 5% (v/v) DMSO. […] Binding isotherms were fit to a one-site binding model using the program ORIGIN ([91]).

[2] = target: ChtA^CR K177G; test: ITC of hemin binding to ChtA^CR K177G; design: species or system Corynebacterium diphtheriae; conditions: 25 °C, average of three replicates
Source text: as §1

[3] = target: ChtA^CR K177G + Y178H; test: ITC of hemin binding to ChtA^CR K177G + Y178H; design: species or system Corynebacterium diphtheriae; conditions: 25 °C, average of three replicates
Source text: as §1

[4] = tested on: ChtA^CR Y178A; test: ITC of hemin binding to ChtA^CR Y178A; design: species or system Corynebacterium diphtheriae
Source text: as §1

[5] = tested on: ChtA^CR Y129A; test: ITC of hemin binding to ChtA^CR Y129A; design: species or system Corynebacterium diphtheriae
Source text: as §1

[6] = target: HtaA^CR1 (residues S37-G214); test: Estimated hemin KD from native ESI-MS partitioning; format: binding, Corynebacterium diphtheriae; conditions: read-out: estimated KD for hemin, from nESI-MS Krel using ITC value of ChtA^CR as reference
Source text: (§2) The C. diphtheriae hemin-uptake system contains six CR domains that are located at distinct sites outside the cell (Fig. 1). […] Together, they represent nearly the full complement of C. diphtheriae’s CR domains (only the domains from ChtB and ChtC are missing, but they are expected to have similar binding properties as their paralogs, HtaB and ChtA, respectively). […] Similar measurements were made for the following protein pairs: HtaA^CR2/HtaB^CR, HtaA^CR1/HtaB^CR, HtaA^CR2/HtaA^CR1, ChtA^CR/HtaA^CR2, and ChtA^CR/HtaB^CR (Table S4).
(§3) nESI-MS was used for ligand (heme)-competition experiments between CR domain pairs to determine their relative heme dissociation constant Krelative (Krel) ([37], [56]). In this approach, two different CR domains (e.g. a >90% heme-loaded “heme donor” and a <10% heme-loaded “heme acceptor” CR domain) are mixed and allowed to come to equilibrium (>6 h, 24 °C). The resulting mixture is then analyzed by nESI-MS, where the apo- and holo-abundance of each CR domain is determined from the sum peak intensity from each of their charge states as described previously ([37]). The relative affinity between the CR pair tested can be determined by their nESI-MS abundances according to Equation 1, which is derived from the ratio of each CR’s KD for heme. Importantly, this analysis is independent of [heme] and Krel should be consistent across different concentrations of [heme donor] and [heme acceptor]; thus, we used at least three different holo-donor and apo-acceptor stoichiometry ratios to determine each Krel reported in Table S4.(eq. 1) KRelative=[CR^hemeacceptor][CR^hemedonor·heme]/[CR^hemedonor][CR^hemeacceptor·heme]=Ab(CR^hemeacceptor)Ab(CR^hemedonor·heme)/Ab(CR^hemedonor)Ab(CR^hemeacceptor·heme)
(§4) For nESI-MS heme-competition experiments, CR domains were first buffer-exchanged into 50 mM ammonium acetate (pH 6.9) using dialysis or gel filtration and protein concentration was determined by bicinchoninic acid assay or UV-visible absorbance at 280 nm. […]

[7] = target: HtaA^CR2 (residues G344-G506); test: Estimated hemin KD from native ESI-MS partitioning; format: binding, Corynebacterium diphtheriae; conditions: read-out: estimated KD for hemin, from nESI-MS Krel using ITC value of ChtA^CR as reference
Source text: as §2, §3, §4

[8] = target: HtaB^CR (HtaB, residues of 30–273); test: Estimated hemin KD from native ESI-MS partitioning; format: binding, Corynebacterium diphtheriae; conditions: read-out: estimated KD for hemin, from nESI-MS Krel using ITC value of ChtA^CR as reference
Source text: as §2, §3, §4

[9] = tested on: CR domains within C. diphtheriae’s hemin-uptake system; test: Hemin affinity across the cohort of CR domains (ITC and native MS partitioning); format: binding, Corynebacterium diphtheriae; conditions: across ChtA^CR, HtaB^CR, HtaA^CR1, HtaA^CR2
Source text: as §2
nESI-MS was used for ligand (heme)-competition experiments between CR domain pairs to determine their relative heme dissociation constant Krelative (Krel) ([37], [56]). […] The resulting mixture is then analyzed by nESI-MS, where the apo- and holo-abundance of each CR domain is determined from the sum peak intensity from each of their charge states as described previously ([37]). The relative affinity between the CR pair tested can be determined by their nESI-MS abundances according to Equation 1, which is derived from the ratio of each CR’s KD for heme. […]
as §4

[10] = tested on: HtaA^CR2 (donor) / ChtA^CR (acceptor); test: Native ESI-MS hemin partitioning HtaA^CR2 → ChtA^CR; format: binding, Corynebacterium diphtheriae
Method: as §3
(§5) For nESI-MS heme-competition experiments, CR domains were first buffer-exchanged into 50 mM ammonium acetate (pH 6.9) using dialysis or gel filtration and protein concentration was determined by bicinchoninic acid assay or UV-visible absorbance at 280 nm. Proteins were then mixed at donor:acceptor ratios ranging from 1:9 to 9:1 (but most often 1:3, 1:1, and 3:1), and incubated for at least 6 h at 24 °C. Equilibrated mixtures were then loaded into platinum-coated borosilicate emitter tips with an inner diameter of 200 to 500 nm pulled on a Sutter P-1000 Micropipette Puller and sprayed on a Q-Exactive UHMR Hybrid Quadrupole-Orbitrap Mass Spectrometer (Thermo Fisher Scientific).
(§6) Table of all CR pairs and stoichiometric ratios tested during the native ESI-MS heme equilibrium partitioning experiments. Apo or holo CR domains were mixed at various ratios (most commonly 1:3, 1:1, and 3:1, corresponding to 5:15 µM, 10:10 µM, or 15:5 µM, respectively).

[11] = tested on: HtaA^CR2 (donor) / HtaB^CR (acceptor); test: Native ESI-MS hemin partitioning HtaA^CR2 → HtaB^CR; format: binding, Corynebacterium diphtheriae
Method: as §3, §5, §6

[12] = tested on: HtaA^CR1 (donor) / HtaB^CR (acceptor); test: Native ESI-MS hemin partitioning HtaA^CR1 → HtaB^CR; format: binding, Corynebacterium diphtheriae
Method: as §3, §5, §6

[13] = tested on: HtaB^CR (donor) / HtaA^CR2 (acceptor); test: Native ESI-MS hemin partitioning HtaB^CR → HtaA^CR2; format: binding, Corynebacterium diphtheriae
Method: as §3, §5, §6

[14] = tested on: HtaA^CR1 / HtaA^CR2; test: Native ESI-MS hemin partitioning HtaA^CR1 → HtaA^CR2; format: binding, Corynebacterium diphtheriae; conditions: transfer HtaA^CR1 → HtaA^CR2 (donor HtaA^CR2, acceptor HtaA^CR1)
Method: as §3, §5, §6

[15] = target: T1, metHb (Homo sapiens, UniProt P68871+P69905); test: Hemin release kinetics from metHb (A405 plate reader assay with apo-acceptor); format: binding; conditions: 5 µM metHb, brackets 95% confidence interval; for kfast / kslow: 25 °C
T1 construct: blood-purified HbA in the carbonmonoxy form; from tissue; host or cells: blood
T1 sequence (P69905 2-142 limits assumed): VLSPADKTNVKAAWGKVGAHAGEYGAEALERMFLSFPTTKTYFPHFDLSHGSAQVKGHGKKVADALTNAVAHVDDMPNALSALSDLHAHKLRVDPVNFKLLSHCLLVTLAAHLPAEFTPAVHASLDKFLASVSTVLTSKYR
T1 sequence (P68871 2-147 limits assumed): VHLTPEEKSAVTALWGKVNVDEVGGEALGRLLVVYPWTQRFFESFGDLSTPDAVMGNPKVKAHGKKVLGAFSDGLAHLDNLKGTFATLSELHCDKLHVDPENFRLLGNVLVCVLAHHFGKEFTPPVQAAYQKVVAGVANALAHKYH
Method: Holo-metHb was injected to a final concentration of 5 μM on the heme basis in triplicate with 50 μM of the respective apo protein in a 384-well plate. The absorbance at 405 nm was measured every 2.5 min for 20 h in a SpectraMax iD3 plate reader (Molecular Devices). Experiments were performed at 25 °C to avoid apo-globin aggregation. Resulting curves were fit to a two-phase exponential decay equation in GraphPad Prism version 9.5.0 (GraphPad Software).
Bracketed values represent the 95% confidence interval for the fitted parameter values.

[16] = target: IsdH NEAT domain; design: method as in PMID 23649633, PMID 24245481; conditions: ITC, ref [57], [58]; cited from earlier work
[17] = target: IsdA NEAT domain; design: method as in PMID 23649633, PMID 24245481; conditions: ITC, ref [57], [58]; cited from earlier work
[18] = apo-acceptor Myoglobin^H64Y/V68F 50 µM

## hemin
[1]
  Kd: 54.8 ± 1.9 nM
[2]
  Kd: 23.6 ± 0.8 nM
[3]
  Kd: 27.1 ± 9 nM
[4]; ChtA^CR Y178A versus WT
  reduction of affinity: ~2 fold
[4]; ChtA^CR Y178A, 25 °C, average of three replicates
  Kd: 46.6 ± 9.6 nM
[5]; ChtA^CR Y129A versus WT
  decrease in binding affinity: > 25 fold
[5]; ChtA^CR Y129A, 25 °C, average of three replicates
  Kd: > 500 nM
[6]
  Kd: 1.1 ± 0.3 nM
[7]
  Kd: 0.85 ± 0.15 nM
[8]
  Kd: 5.4 ± 1 nM
[9]
  variation in binding strength: ~25 fold
[10]; AVERAGE
  Krel inverse: 24.96 ± 8.87
[10]; ratio 1:1
  Krel (donor/acceptor): 0.05
  Krel inverse: 18.29
[10]; ratio 1:3
  Krel (donor/acceptor): 0.05
  Krel inverse: 19.27
[10]; ratio 2:1
  Krel (donor/acceptor): 0.03 and 0.06
[10]; ratio 3:1
  Krel inverse: 32.96
[10]; ratio (donor:acceptor) 3:1
  Krel (donor/acceptor): 0.03
[11]; AVERAGE
  Krel (donor/acceptor): 4.93 ± 0.88
  Krel inverse: 0.21 ± 0.04
[11]; ratio 1:1
  Krel (donor/acceptor): 3.92
  Krel inverse: 0.26
[11]; ratio 1:3
  Krel (donor/acceptor): 5.31
  Krel inverse: 0.19
[11]; ratio 3:1
  Krel (donor/acceptor): 5.56
  Krel inverse: 0.18
[12]; AVERAGE
  Krel (donor/acceptor): 5.75 ± 1.4
  Krel inverse: 0.18 ± 0.05
[12]; ratio 1:1
  Krel (donor/acceptor): 7.51 and 4.09 and 6.88
  Krel inverse: 0.13 and 0.24 and 0.15
[12]; ratio 1:3
  Krel (donor/acceptor): 4.46 and 4.42
  Krel inverse: 0.22 and 0.23
[12]; ratio 3:1
  Krel (donor/acceptor): 6.16 and 6.76
  Krel inverse: 0.16 and 0.15
[13]; acceptor HtaA^CR2, AVERAGE
  Krel (donor/acceptor): 0.18 ± 0.01
  Krel inverse: 5.66 ± 0.33
[13]; acceptor HtaA^CR2, ratio 1:1
  Krel (donor/acceptor): 0.17
  Krel inverse: 5.8
[13]; acceptor HtaA^CR2, ratio 1:3
  Krel (donor/acceptor): 0.17
  Krel inverse: 5.9
[13]; acceptor HtaA^CR2, ratio 3:1
  Krel (donor/acceptor): 0.19
  Krel inverse: 5.28
[14]; AVERAGE
  Krel (donor/acceptor): 0.84 ± 0.12
  Krel inverse: 1.2 ± 0.15
[14]; ratio 1:1
  Krel (donor/acceptor): 0.78
  Krel inverse: 1.28
[14]; ratio 1:3
  Krel (donor/acceptor): 0.98
  Krel inverse: 1.02
[14]; ratio 3:1
  Krel (donor/acceptor): 0.77
  Krel inverse: 1.29
[15]; apo-acceptor ChtA^CR 50 µM
  kfast: 1.78 [1.51 - 2.1] hr^-1
  kslow: 0.18 [0.17 - 0.19] hr^-1
  %kfast: 35.52% [33.1% - 37.9%]
[15]; apo-acceptor HtaA^CR1 50 µM
  kfast: 1.55 [1.13 - 2.15] hr^-1
  kslow: 0.21 [0.18 - 0.23] hr^-1
  %kfast: 33.11% [26.9% - 39%]
[15]; apo-acceptor HtaA^CR2 50 µM
  kfast: 2.46 [2.23 - 2.72] hr^-1
  kslow: 0.21 [0.19 to 0.22] hr^-1
  %kfast: 41.11% [39.3% - 42.9%]
[15]; [18]
  kslow: 0.13 [0.11 - 0.14] hr^-1
  %kfast: 34.6% [30.8% - 38.3%]
[16]
  Kd: 34 ± 8 nM
[17]
  Kd: 14 ± 4 nM
